Laboratory results taken from patent US12697402B2, “Detection of colonic neoplasia in vivo using near-infrared peptide targeted against overexpressed cMet” (THE REGENTS OF THE UNIVERSITY OF MICHIGAN, priority 2019, dated 2026).
“Also recorded” adds a separate entry of the source. Peptide text beside a SMILES is read from it. * marks the point of attachment. X1 = CN1/C(=C/C=C/C=C/C2=[N+](CCCCCC(=O)*)c3ccc4ccccc4c3C2(C)C)C(C)(C)c2c1ccc1ccccc21

Columns and labels:
[1] = test system: phosphorylation of cMet, AKT and ERK1/2; experiment: Effect of peptide on cell signaling (Western blot); format: cell-based, human; details: HT29 cells; 10, 30, 120 min; HGF 25 ng/mL; peptide 5 or 100 μM
Description: HT29 cells were treated with serum-free medium overnight for starvation before incubation with hHGF (hHGF, 294-HG-005, R&D) or peptides. Recombinant Human HGF Protein was added to HT29 cells at concentrations of 25 ng/ml for 10, 30, or 120 min in separate wells. QQT*-Cy5.5 and TLQ*-Cy5.5 were added at concentrations of 5 or 100 μM for 10, 30, and 120 min. Peptides were added at concentrations of 5 and 100 μM for 10, 30, or 120 min. Cells were then washed with 1×PBS and lysed with Pierce RIPA buffer containing Halt Phosphatase Inhibitor Cocktail (Thermo Fisher) and Halt Protease Inhibitor Cocktail (Thermo Fisher). Protein contents were quantified by Bicinchoninic Acid Assay (BCA). Anti-cMet antibody (Cell Signaling, #8198), phospho-cMet (Tyr1234/1235) antibody (Cell Signaling, #3077), anti-AKT antibody (Cell Signaling, #4691), anti-phospho-AKT antibody (Cell Signaling, #9271), anti-ERK1/2 antibody (Abcam, #ab17942), anti-phospho-ERK1/2 antibody (Abcam, #ab50011), and anti-tubulin antibody (Invitrogen, #32-2600) were used per manufacturer's instructions.

HT29 cells = experiment: Alamar blue assay, HT29; format: cell-based, human; details: 48 hours; HGF 25 ng/mL; peptide 5 or 100 μM
Description: (§1) An alamar blue assay was performed using HT29 and CCD841 cells. After culturing in serum free media overnight, about 3×10^3 cells were seeded per well in serum free media in 96 well plates at a final volume of 100 μL per well. […] Alamar blue reagent (10 μL) was added in amounts equal to 10% of the volume in the well, and incubated at 37° C. for 4 hours. Fluorescence with excitation at λex=530-560 nm, and emission at λex=590 nm, was measured.

CCD841 cells = experiment: Alamar blue assay, CCD841; format: cell-based, human; details: normal colon cells; 48 hours; HGF 25 ng/mL; peptide 5 or 100 μM
Description: as §1

cMet (HT29 cells) = cMet (HT29 cells) (Homo sapiens, UniProt P08581); experiment: biochemical
Chain of cMet (HT29 cells) (P08581 25-1390): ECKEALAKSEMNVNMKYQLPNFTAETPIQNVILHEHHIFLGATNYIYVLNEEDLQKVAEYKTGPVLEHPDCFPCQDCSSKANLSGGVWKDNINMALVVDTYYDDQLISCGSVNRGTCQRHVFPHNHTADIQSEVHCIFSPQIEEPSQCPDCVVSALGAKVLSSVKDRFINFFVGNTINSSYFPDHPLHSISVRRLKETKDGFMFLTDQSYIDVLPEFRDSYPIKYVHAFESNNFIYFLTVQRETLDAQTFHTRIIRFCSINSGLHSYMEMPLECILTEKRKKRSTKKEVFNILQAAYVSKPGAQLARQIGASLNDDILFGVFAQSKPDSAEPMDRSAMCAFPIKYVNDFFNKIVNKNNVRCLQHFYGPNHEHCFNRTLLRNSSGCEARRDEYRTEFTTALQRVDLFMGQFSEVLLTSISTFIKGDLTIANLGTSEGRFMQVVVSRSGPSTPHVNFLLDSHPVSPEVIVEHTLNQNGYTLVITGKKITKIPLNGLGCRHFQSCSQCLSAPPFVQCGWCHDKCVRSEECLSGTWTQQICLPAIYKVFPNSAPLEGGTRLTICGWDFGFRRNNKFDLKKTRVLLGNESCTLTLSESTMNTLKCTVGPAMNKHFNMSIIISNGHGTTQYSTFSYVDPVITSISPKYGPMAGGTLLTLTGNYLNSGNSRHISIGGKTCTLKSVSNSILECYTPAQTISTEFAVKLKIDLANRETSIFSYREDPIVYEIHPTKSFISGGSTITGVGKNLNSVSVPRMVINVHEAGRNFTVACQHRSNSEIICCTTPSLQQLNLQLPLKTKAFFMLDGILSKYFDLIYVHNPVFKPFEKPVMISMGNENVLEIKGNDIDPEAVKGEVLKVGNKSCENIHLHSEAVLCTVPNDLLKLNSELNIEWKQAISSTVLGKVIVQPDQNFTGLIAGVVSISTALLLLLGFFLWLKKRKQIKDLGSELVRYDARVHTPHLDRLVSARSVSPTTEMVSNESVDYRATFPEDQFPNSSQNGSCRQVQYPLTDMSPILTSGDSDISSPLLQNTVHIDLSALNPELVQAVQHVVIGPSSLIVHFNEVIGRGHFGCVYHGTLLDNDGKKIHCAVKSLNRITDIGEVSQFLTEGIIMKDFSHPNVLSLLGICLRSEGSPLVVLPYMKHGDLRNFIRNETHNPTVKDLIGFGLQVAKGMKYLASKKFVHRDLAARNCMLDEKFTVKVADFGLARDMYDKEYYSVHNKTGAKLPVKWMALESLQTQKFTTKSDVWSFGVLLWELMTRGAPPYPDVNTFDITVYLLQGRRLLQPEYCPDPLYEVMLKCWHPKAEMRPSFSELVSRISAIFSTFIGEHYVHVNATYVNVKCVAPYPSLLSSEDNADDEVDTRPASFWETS
Description: Cells then were washed 3 times with 1×PBS containing 0.5% BSA to remove unbound peptides before analysis with flow cytometry (FACS Canto; BD Biosciences, San Jose, CA). Sample means were used to calculate the equilibrium dissociation constant KD using nonlinear regression analysis with Origin 6.1 data analysis software (OriginLab, Northampton, MA). KD=1/KA was calculated by performing a least-squares fit of the data to the nonlinear equation I[X]=(I0+Imaxka[X])/(I0+ka[X]). I0 and Imax are the initial and maximum fluorescence intensities, corresponding to no peptide and peptide saturation, respectively, and [X] represents the concentration of the bound peptide.^34

| Molecule | phosphorylation of cMet and downstream AKT and ERK1/2 [1] | growth of HT29 cells (HT29 cells) | growth of CCD841 cells (CCD841 cells) | Kd (cMet (HT29 cells)) |
| --- | --- | --- | --- | --- |
| HGF: recombinant human hepatocyte growth factor, known ligand for cMet, positive control | strong phosphorylation activity; also recorded: induced phosphorylation | increased growth | – | – |
| CC(C)C[C@H](NC(=O)[C@H](CO)NC(=O)[C@H](Cc1c[nH]c2ccccc12)NC(=O)[C@H](CC(N)=O)NC(=O)[C@@H](NC(=O)[C@H](CCC(N)=O)NC(=O)[C@@H](N)CCC(N)=O)[C@@H](C)O)C(=O)NCC(=O)NCC(=O)NCC(=O)N[C@@H](CO)C(=O)N[C@@H](CCCCNC(=O)CCCCC[N+]1=C(/C=C/C=C/C=C2/N(C)c3ccc4ccccc4c3C2(C)C)C(C)(C)c2c1ccc1ccccc21)C(N)=O [QQT*-Cy5.5] (H-QQTNWSLGGGSK(X1)-NH2) | – | – | no effect on growth; also recorded: No change | 57 nM |
